In patent publication US9475795B2 (TAKEDA PHARMACEUTICAL COMPANY LIMITED, priority 2012, dated 2016):

Target: human PKR1 receptors (Homo sapiens (Human), UniProt Q8TCW9)
Assay: PKR1 antagonist assay: block of PK1-mediated intracellular calcium release (FLIPR)
Type: cell-based
Settings: RBL2H3 cells expressing human PKR1; 10 min preincubation; stimulation with PK1 at EC80; calcium fluorescence
Experimental: Prokineticin receptor 1 (PKR1) antagonists may be functionally assessed by measurement of change in intracellular calcium levels induced by Gq mediated increase in inositol triphosphate (IP3) levels. The ability of a compound to block the intracellular release of calcium mediated by PK1 in RBL2H3 cells expressing human PKR1 receptors is determined as a measure of the compound's antagonist activity in vitro.
Approximately 10,000 cells per assay well are seeded in normal culture medium in a 384 well plate (Corning). […]
To test for antagonist activity, test compounds at a final concentration range between 0.32 nM-10 μM (diluted in assay buffer) are added to the assay wells and allowed to incubate for 10 minutes prior to stimulation with PK1. After incubation with test compounds the assay plate is placed in a FLIPR Tetra (Molecular Devices) and PK1 (diluted in assay buffer) is added at the determined EC80 concentration (final). Ligand-dependent changes in intracellular calcium levels are determined by measuring changes in fluorescence of the dye at […] following excitation at 485 nm.

human PKR1 receptors, sequence (Q8TCW9 whole entry): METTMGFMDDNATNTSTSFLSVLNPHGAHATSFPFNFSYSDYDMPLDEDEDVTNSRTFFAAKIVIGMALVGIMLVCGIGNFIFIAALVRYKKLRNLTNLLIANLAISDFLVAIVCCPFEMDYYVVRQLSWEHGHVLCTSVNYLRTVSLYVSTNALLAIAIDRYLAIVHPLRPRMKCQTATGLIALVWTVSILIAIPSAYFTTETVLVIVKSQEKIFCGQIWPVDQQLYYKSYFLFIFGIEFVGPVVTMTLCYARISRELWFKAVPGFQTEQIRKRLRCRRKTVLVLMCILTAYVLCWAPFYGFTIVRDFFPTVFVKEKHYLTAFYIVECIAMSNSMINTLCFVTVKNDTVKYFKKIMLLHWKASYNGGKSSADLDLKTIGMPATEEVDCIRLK

- IC50: 900 nM
Compound: Cc1nn(C)c(C)c1S(=O)(=O)N1CCC(N(C)c2ccc(Cl)cc2)CC1 [Example 53]
